Reference: PMC5233962 (Scientific Reports, 2017)
“And” between values parts separate entries of the source, which are not always exact repeats. Equal entries are not always repeated. Where two headings read alike, the source gives them in different places.

Tests used:
[1] = system: hMAO; test: Type of inhibition from dilution experiments, both hMAO isoforms; assay type: biochemical, human; details: dilution experiment, preincubation 10 × IC50, 100-fold dilution
Procedure: After preincubation probes were diluted 100-fold, measured at saturated substrate conditions and the remaining enzyme activity was compared to that of MAO preincubated without ciproxifan.
Reversibility of hMAO inhibition by ciproxifan was assessed by dilution experiments. […] The inhibitor volume represented one-tenth of the total preincubation volume. […] Enzymatic conversion rates were determined in the presence of kynuramine for hMAO A and benzylamine for hMAO B at saturating substrate concentrations (10 × KM) under potassium phosphate buffer conditions (50 mM, pH = 7.4).

[2] = biological target: r5-HT2A; set-up: method as in PMID 9808693; details: rat tail; cited from earlier work
[3] = biological target: hα2C; set-up: method as in PMID 12606603; details: human; cited from earlier work
[4] = biological target: r5-HT3; set-up: method as in PMID 12606603; details: rat; cited from earlier work
[5] = biological target: hH3R; set-up: method as in PMID 11090094, PMID 12606603, PMID 14660004; details: human H3R; cited from earlier work
[6] = biological target: mH3R; set-up: method as in PMID 15341517; details: mouse H3R; cited from earlier work
[7] = biological target: mkH3R; set-up: method as in PMID 14660004; details: monkey H3R; cited from earlier work
[8] = biological target: r5-HT1; set-up: method as in PMID 18683917; details: rat; cited from earlier work
[9] = biological target: gp5-HT3; set-up: method as in PMID 9808693; details: guinea pig ileum; cited from earlier work
[10] = biological target: rH3R; details: rat H3R; cited from earlier work
[11] = biological target: T1, rat brain MAO B (Rattus norvegicus, UniProt P19643); test: Radiometric IC50 determination, rat brain MAO B; assay type: biochemical
T1 construct: the crude homogenates prepared from pooled brain from three rats were used; from tissue; host or cells: Wistar rat brain, crude homogenate
Procedure: (§1) The IC50 values of ciproxifan for rat brain MAO (rMAO) were obtained radiometrically using serotonin (5-HT) and phenylethylamine (PEA) as MAO A and MAO B substrates, respectively.
(§2) Wistar male rats were sacrificed, the brains were quickly excised from the skulls, cleaned of residual meninges and frozen on dry ice. For each experiment the crude homogenates prepared from pooled brain from three rats were used. Enzyme activity of MAO A or MAO B was measured using radioactive substrate (PerkinElmer/NEN): serotonin (5-[2-^14C]-hydroxytryptamine binoxalate) or β-[ethyl-1-^14C]-phenyl-ethyl-amine hydrochloride (PEA), respectively, with the procedure described by Fowler and Tipton 1981[25] with some modification according to Gómez et al.[26]. […] IC50 values were determined in three independent experiments, each performed in duplicates.

[12] = biological target: gp M3; set-up: method as in PMID 9808693; details: guinea pig ileum; cited from earlier work
[13] = biological target: rα1D; set-up: method as in PMID 9808693; details: rat aorta; cited from earlier work
[14] = biological target: hH1R; set-up: method as in PMID 12606603; details: human; cited from earlier work
[15] = set-up: method as in PMID 18305012; details: applied i.p. to rats; cited from earlier work
[16] = biological target: gpβ1; set-up: method as in PMID 9808693; details: guinea pig atrium; cited from earlier work
[17] = biological target: human recombinant membrane-bound MAO A (Homo sapiens, UniProt P21397); test: Spectrophotometric IC50 determination, human MAO A; details: IC50 hMAO A, substrate KYN
Procedure: Enzyme studies were carried out using human recombinant membrane-bound MAO A and MAO B (Sigma-Aldrich, St. Louis, MO). […] For optimal enzyme activity all assays were carried out under potassium phosphate buffered conditions (50 mM, pH = 7.4). […] Data were analysed using GraphPad PRISM version 6. For IC50 determinations initial velocities for each experiment were normalized (expressed as percentage), plotted against inhibitor concentrations and fitted using the non-linear regression “log inhibitor vs. response (three parameters)”. IC50 values were determined in at least three independent experiments, each performed at least in duplicates.

[18] = biological target: hH2R; set-up: method as in PMID 12606603; details: human; cited from earlier work
[19] = biological target: hα2A; set-up: method as in PMID 12606603; details: human; cited from earlier work
[20] = biological target: hH4R; set-up: method as in PMID 12606603; details: human; cited from earlier work
[21] = biological target: gp5-HT1B; set-up: method as in PMID 9808693; details: guinea pig iliac; cited from earlier work
[22] = biological target: T2, rat brain MAO A (Rattus norvegicus, UniProt P21396); test: Radiometric IC50 determination, rat brain MAO A; assay type: biochemical; details: substrate 5-HT, rat brain homogenate, read-out: IC50 rMAO A
T2 construct: the crude homogenates prepared from pooled brain from three rats were used; from tissue; host or cells: Wistar rat brain, crude homogenate
Procedure: as §1, §2

[23] = biological target: r5-HT4; set-up: method as in PMID 9808693; details: rat esophagus; cited from earlier work
[24] = biological target: T3, human recombinant membrane-bound MAO B (Homo sapiens, UniProt P27338); test: Spectrophotometric IC50 determination, human MAO B; assay type: biochemical; details: for IC50: spectrophotometric, read-out: IC50 hMAO B
T3 construct: purchased Sigma-Aldrich
T3 sequence (P27338 1-520): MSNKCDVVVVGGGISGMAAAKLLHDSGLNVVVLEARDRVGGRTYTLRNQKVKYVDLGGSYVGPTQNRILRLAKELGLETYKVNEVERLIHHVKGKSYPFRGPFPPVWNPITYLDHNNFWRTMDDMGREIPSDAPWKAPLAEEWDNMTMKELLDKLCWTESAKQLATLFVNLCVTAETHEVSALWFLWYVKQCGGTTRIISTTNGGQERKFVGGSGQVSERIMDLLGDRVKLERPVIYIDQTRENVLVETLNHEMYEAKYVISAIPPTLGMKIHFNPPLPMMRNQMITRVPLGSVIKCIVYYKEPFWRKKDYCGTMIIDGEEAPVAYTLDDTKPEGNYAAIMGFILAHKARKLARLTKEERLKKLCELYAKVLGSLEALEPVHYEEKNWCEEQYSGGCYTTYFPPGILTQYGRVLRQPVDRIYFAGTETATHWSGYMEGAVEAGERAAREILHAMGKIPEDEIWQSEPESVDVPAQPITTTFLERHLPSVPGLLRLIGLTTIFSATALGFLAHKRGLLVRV

[25] = biological target: rodent H3R; test: Affinity at rodent H3R (discussion); assay type: binding; details: rodent vs human H3R
[26] = system: MAO; details: cited from earlier work

T1 sequence (P19643 whole entry): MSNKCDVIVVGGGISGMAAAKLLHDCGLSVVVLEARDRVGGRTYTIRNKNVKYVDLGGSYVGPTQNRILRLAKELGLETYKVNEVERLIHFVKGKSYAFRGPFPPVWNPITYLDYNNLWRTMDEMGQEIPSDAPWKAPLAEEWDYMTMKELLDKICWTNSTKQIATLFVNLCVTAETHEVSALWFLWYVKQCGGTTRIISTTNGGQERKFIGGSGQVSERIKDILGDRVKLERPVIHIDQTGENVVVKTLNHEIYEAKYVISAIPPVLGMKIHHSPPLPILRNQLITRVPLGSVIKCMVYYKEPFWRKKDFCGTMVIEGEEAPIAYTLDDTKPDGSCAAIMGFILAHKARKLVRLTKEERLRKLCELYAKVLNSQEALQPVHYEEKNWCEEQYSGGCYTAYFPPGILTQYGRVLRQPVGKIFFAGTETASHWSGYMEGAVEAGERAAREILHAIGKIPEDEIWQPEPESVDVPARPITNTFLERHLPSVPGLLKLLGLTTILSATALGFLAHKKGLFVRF
human recombinant membrane-bound MAO A, sequence (P21397 whole entry): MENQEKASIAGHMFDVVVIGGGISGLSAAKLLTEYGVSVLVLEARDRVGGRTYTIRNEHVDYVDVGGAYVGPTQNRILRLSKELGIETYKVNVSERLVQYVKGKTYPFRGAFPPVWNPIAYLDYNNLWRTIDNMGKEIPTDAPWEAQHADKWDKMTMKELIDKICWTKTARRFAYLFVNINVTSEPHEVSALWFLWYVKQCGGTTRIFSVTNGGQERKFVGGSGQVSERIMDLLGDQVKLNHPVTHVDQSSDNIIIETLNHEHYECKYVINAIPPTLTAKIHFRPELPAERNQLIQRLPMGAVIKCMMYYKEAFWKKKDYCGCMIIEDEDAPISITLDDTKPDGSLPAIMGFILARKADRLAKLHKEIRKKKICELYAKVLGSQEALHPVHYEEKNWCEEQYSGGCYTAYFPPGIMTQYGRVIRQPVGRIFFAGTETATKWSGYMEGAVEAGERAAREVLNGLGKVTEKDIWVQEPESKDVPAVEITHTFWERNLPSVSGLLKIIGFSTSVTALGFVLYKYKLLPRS
T2 sequence (P21396 whole entry): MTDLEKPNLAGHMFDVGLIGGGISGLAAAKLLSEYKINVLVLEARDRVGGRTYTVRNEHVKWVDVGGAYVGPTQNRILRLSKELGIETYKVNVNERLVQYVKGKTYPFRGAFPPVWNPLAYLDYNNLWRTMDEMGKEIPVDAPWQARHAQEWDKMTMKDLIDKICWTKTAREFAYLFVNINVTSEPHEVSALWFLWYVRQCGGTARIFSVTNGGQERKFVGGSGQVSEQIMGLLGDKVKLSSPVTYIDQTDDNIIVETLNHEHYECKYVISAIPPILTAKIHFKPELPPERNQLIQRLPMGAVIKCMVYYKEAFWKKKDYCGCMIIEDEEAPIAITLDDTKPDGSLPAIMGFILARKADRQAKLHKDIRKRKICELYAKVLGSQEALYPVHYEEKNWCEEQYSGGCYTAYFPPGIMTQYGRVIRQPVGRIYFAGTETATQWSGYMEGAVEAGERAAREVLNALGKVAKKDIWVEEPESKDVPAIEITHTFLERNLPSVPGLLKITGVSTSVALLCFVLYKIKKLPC

Question: With O=C(c1ccc(OCCCc2cnc[nH]2)cc1)C1CC1 [Ciproxifan, cyclopropyl 4-(3-(1H-imidazol-4-yl)propyloxy)phenyl methanone] as the molecule, how does the “Inhibition Type” value [1] read?
Answer: The value was “Reversible”.

Question: And the Ki [2]?
Answer: Its Ki is 15.8 µM.

Question: And the Ki [3]?
Answer: Its Ki is 0.063 µM.

Question: And the Ki [4]?
Answer: Its Ki is 0.302 µM.

Question: What about the Ki [5] of the same molecule?
Answer: Its Ki is 0.046 to 0.18 µM.

Question: What about the Ki [6] of the same molecule?
Answer: The Ki was 0.0005 to 0.0008 µM.

Question: What about the Ki [7] of the same molecule?
Answer: Its Ki is 0.041 µM.

Question: And the Ki [8]?
Answer: Its Ki is 16.6 µM.

Question: What about the Ki [9] of the same molecule?
Answer: Its Ki is over 3.16 µM.

Question: What about the Ki [10] of the same molecule?
Answer: The Ki was 0.0004 to 0.0062 µM.

Question: And the “IC50, MAO B/IC50, MAO A” value ([11]; rat brain MAO)?
Answer: The value was 0.4.

Question: What about the IC50 ([11]; substrate PEA, radiometric, rat brain homogenate, read-out: IC50 rMAO B) of the same molecule?
Answer: Its IC50 is 15 µM and 15.4 µM.

Question: And the Ki [12]?
Answer: Its Ki is 3.16 µM.

Question: And the Ki [13]?
Answer: Its Ki is 3.98 µM.

Question: What about the Ki [14] of the same molecule?
Answer: Its Ki is over 10 µM.

Question: What about the brain concentrations [15] of the same molecule?
Answer: The brain concentrations was at most 10 µM.

Question: What about the Ki [16] of the same molecule?
Answer: The Ki was 12.6 µM.

Question: What about the IC50 [17] of the same molecule?
Answer: Its IC50 is 11 µM and 11.4 µM.

Question: What about the Ki [18] of the same molecule?
Answer: Its Ki is over 10 µM.

Question: What about the Ki [19] of the same molecule?
Answer: The Ki was 0.043 µM.

Question: And the Ki [20]?
Answer: The Ki was 1.86 µM.

Question: And the Ki [21]?
Answer: Its Ki is over 10 µM.

Question: And the IC50 [22]?
Answer: Its IC50 is 38 µM and 37.5 µM.

Question: What about the Ki [23] of the same molecule?
Answer: The Ki was over 2 µM.

Question: And the “IC50, MAO B/IC50, MAO A” value ([24]; human MAO)?
Answer: The value was 0.2.

Question: And the “preference for MAO B” value ([24]; human MAO B over MAO A)?
Answer: The value was “about 5 fold”.

Question: What about the IC50 ([24]; substrate BZA) of the same molecule?
Answer: Its IC50 is 4.3 ± 0.7 µM.

Question: And the IC50 ([24]; substrate KYN)?
Answer: Its IC50 is 2 µM and 2.1 µM.

Question: And the “Ki at rodent H3R, fold lower than at the human H3R” value [25]?
Answer: The value was 30- to 100 fold.

Question: For C#CCN(C)CCCOc1ccc(Cl)cc1Cl [Clorgyline], which “Inhibition Type” value [26] is on record?
Answer: The value was “Mixed/Irreversible[33]”.

Question: For C#CCN(C)[C@H](C)Cc1ccccc1 [L-Deprenyl], which “Inhibition Type” value [26] is on record?
Answer: The value was “Mixed/Irreversible[33]”.

Question: Which “Inhibition Type” value [26] does the source give for O=C(NCCN1CCOCC1)c1ccc(Cl)cc1 [Moclobemide] here?
Answer: The value was “Reversible[32]”.

Question: With C[C@H](NCc1ccc(OCc2cccc(F)c2)cc1)C(N)=O [Safinamide] as the molecule, how does the “Inhibition Type” value [26] read?
Answer: The value was “Reversible[20]”.
